Assay results reported in patent US20220226340A1, “CASEIN KINASE 1 INHIBITORS FOR USE IN THE TREATMENT OF DISEASES RELATED TO DUX4 EXPRESSION SUCH AS MUSCULAR DYSTROPHY AND CANCER” (Facio Intellectual Property B.V., priority 2019, published 2022).
Like-named read-outs stand apart in the source and are kept apart here.

Experiments:
DUX4 [1] = assay: high-content immunocytochemistry assay of endogenous DUX4 expression in differentiating primary FSHD myotubes; format: cell-based, human; conditions: for EC50: Homo sapiens, Myotube, 72 h, 72 h treatment protocol, read-out: DUX4 EC50
Excerpt: (§1) A quantitative assay readout was developed based on script-based image analysis. […] To analyse the images, an automated script was developed, enabling the detection of nuclei, myotube borders and DUX4 signals, with the script also detecting artefacts to reduce false positive signals. The script enabled multiple validated readouts including the number of DUX4 positive nuclei and nuclei clusters, the fusion index, myotube area, myotube width and myotube skeleton length (see FIG. 2). Additionally, the total nuclei count was included as a measure of cell loss or compound toxicity.
A compound library containing approximately 5000 annotated compounds was screened in the high-content assay. For this purpose, primary myoblasts were seeded in 384 well plates after which the growth medium was replaced with differentiation medium. After 3 days of differentiation, cells were treated with library compounds (in duplicate on different screening plates) for 15 h, after which they were fixed and stained with antibodies against DUX4, antibodies against myosin heavy chain (MHC), and with DAPI (4′,6-diamidino-2-phenylindole). Script-based analysis provided readouts for DUX4 expression (count of DUX4-positive nuclei or DUX4 intensity) and for potential toxicity (fusion index and nuclei count).
Compounds were incubated with primary FSHD cells for 15 hours, as indicated by the arrow in FIG. 4A.
(§2) Compounds are administered either 15 h before fixation, resembling the original screening protocol, or 72 h before fixation (grey arrow). In the latter case, compounds are present during the whole differentiation process.

DUX4 [2] = conditions: immortalised differentiated myotube cultures; cited from earlier work
CK1δ = CK1δ (Homo sapiens, UniProt P48730); assay: CK1δ inhibition IC50; format: biochemical; conditions: Table 6; read-out: IC50 CK1δ
Sequence of CK1δ (P48730 whole entry): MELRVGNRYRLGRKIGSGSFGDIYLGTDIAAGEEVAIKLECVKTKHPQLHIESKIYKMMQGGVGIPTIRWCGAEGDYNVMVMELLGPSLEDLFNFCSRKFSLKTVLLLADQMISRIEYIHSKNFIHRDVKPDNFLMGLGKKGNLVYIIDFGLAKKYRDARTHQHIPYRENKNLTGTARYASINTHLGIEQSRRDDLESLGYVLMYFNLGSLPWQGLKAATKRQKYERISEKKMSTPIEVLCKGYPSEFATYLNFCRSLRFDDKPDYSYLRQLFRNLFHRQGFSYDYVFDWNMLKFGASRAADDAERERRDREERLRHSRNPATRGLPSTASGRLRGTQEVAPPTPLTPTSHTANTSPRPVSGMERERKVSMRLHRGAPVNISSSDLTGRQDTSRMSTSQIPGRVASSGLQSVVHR

CK1ε = CK1ε (Homo sapiens, UniProt P49674); assay: CK1ε inhibition IC50; format: biochemical; conditions: Table 6; read-out: IC50 CK1ε
Sequence of CK1ε (P49674 whole entry, the tested form may be a part): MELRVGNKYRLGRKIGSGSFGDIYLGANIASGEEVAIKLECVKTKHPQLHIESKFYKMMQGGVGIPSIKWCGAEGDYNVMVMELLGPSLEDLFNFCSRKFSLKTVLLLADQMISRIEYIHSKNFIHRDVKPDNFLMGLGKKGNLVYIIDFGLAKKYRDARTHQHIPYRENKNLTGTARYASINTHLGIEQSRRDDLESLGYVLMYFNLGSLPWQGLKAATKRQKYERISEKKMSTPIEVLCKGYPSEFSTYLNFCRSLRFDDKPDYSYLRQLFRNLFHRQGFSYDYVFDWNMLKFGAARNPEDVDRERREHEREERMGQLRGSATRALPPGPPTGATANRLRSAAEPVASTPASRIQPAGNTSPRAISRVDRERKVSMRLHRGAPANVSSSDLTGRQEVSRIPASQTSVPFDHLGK

primary FSHD cells = assay: fusion index (myotube fusion) readout of the high-content assay in primary FSHD cells; format: cell-based, human; conditions: 72 h, CK1 inhibitor combined with losmapimod, microscopic images
Excerpt: as §1, §2

p38α = p38α (Homo sapiens, UniProt Q16539); assay: p38α inhibition IC50; format: biochemical; conditions: Table 6; read-out: IC50 p38α
Sequence of p38α (Q16539 whole entry): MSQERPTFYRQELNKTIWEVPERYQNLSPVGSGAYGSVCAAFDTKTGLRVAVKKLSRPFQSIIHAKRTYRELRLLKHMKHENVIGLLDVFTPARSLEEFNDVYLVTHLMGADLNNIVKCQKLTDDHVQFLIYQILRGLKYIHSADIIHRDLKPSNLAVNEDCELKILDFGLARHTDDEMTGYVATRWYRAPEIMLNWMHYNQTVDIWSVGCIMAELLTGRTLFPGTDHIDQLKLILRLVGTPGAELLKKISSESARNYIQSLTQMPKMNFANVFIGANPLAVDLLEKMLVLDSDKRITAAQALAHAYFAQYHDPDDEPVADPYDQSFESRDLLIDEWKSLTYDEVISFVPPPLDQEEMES

pancreatic tumor cell = conditions: in vitro and in vivo; cited from earlier work

| SMILES | effect on DUX4 expression (DUX4 [1]; irrespective of treatment time (15 h or 72 h)) | expression of DUX4 (DUX4 [2]) | EC50 (DUX4 [1]; Table 4) [µM] | EC50 (DUX4 [1]; Table 6) [µM] | IC50 (CK1δ) [µM] | IC50 (CK1ε) [µM] | myotube formation in the presence of increasing concentrations of losmapimod (primary FSHD cells) | effect on DUX4 (DUX4 [1]; 72 h treatment) | IC50 (p38α) [µM] | pancreatic tumor cell growth (pancreatic tumor cell) |
| --- | --- | --- | --- | --- | --- | --- | --- | --- | --- | --- |
| COc1cc(OC)c2c(=O)[nH]c(-c3cc(C)c(OCCO)c(C)c3)nc2c1 [RVX-208, reference compound] | did not show any effect on DUX4 expression | can inhibit the expression of DUX4 |  |  |  |  |  |  |  |  |
| Cn1cc(-c2ccnc3c2C(=O)OC3)c(-c2ccc(F)cc2)n1 [Nr. 4] |  |  | 4.8 | 4.8 | 0.033 | 0.052 | myotube formation is still intact |  |  |  |
| Fc1ccc(-c2nc3ccc(N4CCNCC4)nn3c2-c2ccncc2)cc1 [Nr. 8] |  |  | 0.01 to 0.06 | 0.01 | 0.016 | 0.009 | myotube formation is still intact | near maximal DUX4 inhibition | 0.015 |  |
| COc1cc(OC)c(C=C2C(O)=Nc3ccccc32)c(OC)c1 [IC261] |  |  |  |  |  |  |  |  |  | reduces pancreatic tumor cell growth |
